EC50, selectivity ratio and Activity data for nine compounds are collected here from ChEMBL document CHEMBL4196076, “An access to a library of novel triterpene derivatives with a promising pharmacological potential by Ugi and Passerini multicomponent reactions” (Eur J Med Chem, 2018).

For data set [1], the system named is A2780. Briefly: Cytotoxicity against human A2780 cells after 96 hrs by sulforhodamine-B assay. The data set is classed as functional, cell-based. The following applies: A2780, 96 h. (In general: In SRB staining, fixed cells bind dye roughly in proportion to their protein.)
Another data set concerns A549. The experiment in a line: Cytotoxicity against human A549 cells after 96 hrs by sulforhodamine-B assay. The data set is classed as functional, cell-based. The following applies: A549, 96 h.
Another data set has as its system NIH3T3. Briefly: Cytotoxicity against mouse NIH/3T3 cells after 96 hrs by sulforhodamine-B assay. Format: cell-based. The following applies: NIH3T3, 96 h.
A further data set concerns HT-29. The experiment in a line: Cytotoxicity against human HT-29 cells after 96 hrs by sulforhodamine-B assay. The following applies: HT-29, 96 h. The data set is classed as functional, cell-based.
Data set [2] is described as follows: Selectivity index, ratio of EC50 for mouse NIH/3T3 cells to EC50 for human A2780 cells. The following applies: NIH/3T3 cells and A2780 cells, read-out: Ratio EC50. The data set is classed as toxicity.
Another data set concerns FaDu. Briefly: Cytotoxicity against human FADU cells after 96 hrs by sulforhodamine-B assay. Format: functional, cell-based.
A further data set relates to 518A2. Briefly: Cytotoxicity against human 518A2 cells after 96 hrs by sulforhodamine-B assay. Format: functional, cell-based. The following applies: 518A2, 96 h.
For a further data set, the system named is MCF7. Briefly: Cytotoxicity against human MCF7 cells after 96 hrs by sulforhodamine-B assay. The data set is classed as functional, cell-based. The following applies: MCF7, 96 h.
For data set [3], the system named is A2780. The experiment in a line: Cell cycle arrest in human A2780 cells assessed as accumulation at G2/M phase at 2 uM after 48 hrs by propidium iodide/RNase-staining based flow cytometric analysis (reference value: 12.9 +/- 1.4%). Format: functional.
For data set [4], the system named is A2780. Briefly: Induction of apoptosis in human A2780 cells assessed as apoptotic cells at 2 uM after 48 hrs by Annexin V-FITC/propidium iodide staining-based flow cytometric analysis (reference value: 2.8 +/- 2.1%). Format: functional.
Data set [5] concerns A2780. The experiment in a line: Cell cycle arrest in human A2780 cells assessed as accumulation at S phase at 2 uM after 48 hrs by propidium iodide/RNase-staining based flow cytometric analysis (reference value: 29.6 +/- 3.1%). Format: functional.
Data set [6] concerns A2780. Briefly: Cell cycle arrest in human A2780 cells assessed as accumulation at G0/G1 phase at 2 uM after 48 hrs by propidium iodide/RNase-staining based flow cytometric analysis (reference value: 57.5 +/- 4.5%). The data set is classed as functional.
Data set [7] concerns A2780. Briefly: Induction of apoptosis in human A2780 cells assessed as secondary necrotic cells at 2 uM after 48 hrs by Annexin V-FITC/propidium iodide staining-based flow cytometric analysis (reference value: 8.2 +/- 0.7%). Format: functional. A general note: A flow cytometer gives signals particle by particle.
Data set [8] concerns A2780. The experiment in a line: Cell cycle arrest in human A2780 cells assessed as accumulation at sub-G1 phase at 2 uM after 48 hrs by propidium iodide/RNase-staining based flow cytometric analysis. The data set is classed as functional.
The test system of data set [9] is A2780. The experiment in a line: Induction of apoptosis in human A2780 cells assessed as vital cells at 2 uM after 48 hrs by Annexin V-FITC/propidium iodide staining-based flow cytometric analysis (reference value: 78.4 +/- 2.1%). The data set is classed as functional.
For data set [10], the system named is A2780. The experiment in a line: Induction of apoptosis in human A2780 cells assessed as necrotic cells at 2 uM after 48 hrs by Annexin V-FITC/propidium iodide staining-based flow cytometric analysis (reference value: 10.6 +/- 1.2%). The data set is classed as functional.
The test system of data set [11] is A2780. The experiment in a line: Cell cycle arrest in human A2780 cells assessed as accumulation at G0/G1 phase at 1.2 uM after 48 hrs by propidium iodide/RNase-staining based flow cytometric analysis (reference value: 57.5 +/- 4.5%). Format: functional.
Data set [12] relates to A2780. The experiment in a line: Induction of apoptosis in human A2780 cells assessed as vital cells at 1.2 uM after 48 hrs by Annexin V-FITC/propidium iodide staining-based flow cytometric analysis (reference value: 78.4 +/- 2.1%). Format: functional.
Data set [13] relates to A2780. The experiment in a line: Induction of apoptosis in human A2780 cells assessed as apoptotic cells at 1.2 uM after 48 hrs by Annexin V-FITC/propidium iodide staining-based flow cytometric analysis (reference value: 2.8 +/- 2.1%). Format: functional.
Data set [14] concerns A2780. Briefly: Cell cycle arrest in human A2780 cells assessed as accumulation at S phase at 1.2 uM after 48 hrs by propidium iodide/RNase-staining based flow cytometric analysis (reference value: 29.6 +/- 3.1%). The data set is classed as functional.
Data set [15] relates to A2780. Briefly: Induction of apoptosis in human A2780 cells assessed as secondary necrotic cells at 1.2 uM after 48 hrs by Annexin V-FITC/propidium iodide staining-based flow cytometric analysis (reference value: 8.2 +/- 0.7%). The data set is classed as functional.
Data set [16] concerns A2780. The experiment in a line: Cell cycle arrest in human A2780 cells assessed as accumulation at G2/M phase at 1.2 uM after 48 hrs by propidium iodide/RNase-staining based flow cytometric analysis (reference value: 12.9 +/- 1.4%). Format: functional.
Data set [17] relates to A2780. Briefly: Cytotoxicity against human A2780 cells assessed as morphological changes after 48 hrs by acridine orange/propidium iodide staining based fluorescence microscopic method. Format: functional, cell-based.
For data set [18], the system named is A2780. The experiment in a line: Induction of apoptosis in human A2780 cells assessed as necrotic cells at 1.2 uM after 48 hrs by Annexin V-FITC/propidium iodide staining-based flow cytometric analysis (reference value: 10.6 +/- 1.2%). The data set is classed as functional.
Data set [19] has as its system A2780. Briefly: Cell cycle arrest in human A2780 cells assessed as accumulation at sub-G1 phase at 1.2 uM after 48 hrs by propidium iodide/RNase-staining based flow cytometric analysis. The data set is classed as functional.

As usually defined, the EC50 is the midpoint of the concentration-response curve.

With `C=CCN(CC(=O)NCC(=O)OC)C(=O)[C@]12CCC(C)(C)C[C@H]1C1=CC[C@@H]3[C@@]4(C)CC[C@H](OC(C)=O)C(C)(C)[C@@H]4CC[C@@]3(C)[C@]1(C)CC2`, the EC50 in the data set on A2780 [1] was 3.5 µM; in the data set with A549, 6.3 µM; in the data set with NIH3T3 it was 7.3 µM; with HT-29 it was 11.1 µM; in the data set on FaDu, 12.2 µM; with 518A2, 7.7 µM. In addition, in the data set on MCF7, the concentration giving a half-maximal response (EC50) came to 4.6 µM. The selectivity ratio in data set [2] was 2.1.
In the case of `COC(=O)CNC(=O)CN(Cc1ccoc1)C(=O)[C@]12CCC(C)(C)C[C@H]1C1=CC[C@@H]3[C@@]4(C)CC[C@H](OC(C)=O)C(C)(C)[C@@H]4CC[C@@]3(C)[C@]1(C)CC2`, the EC50 with A2780 [1] was 3.5 µM; in the data set on A549, 6.5 µM; in the data set with NIH3T3, 8.9 µM; in the data set with HT-29 it was 14.3 µM; with FaDu, 5.9 µM; in the data set on 518A2, 6.5 µM. In the data set with MCF7, this compound returned an EC50 of 7 µM. The selectivity ratio in [2] came out at 2.5.
In the case of `CC(=O)O[C@H]1CC[C@]2(C)[C@H]3CC=C4[C@@H]5CC(C)(C)CC[C@]5(C(=O)N(CC(=O)NC(C)(C)C)Cc5ccccc5)CC[C@@]4(C)[C@]3(C)CC[C@H]2C1(C)C`, the EC50 in the data set on A2780 [1] is 2.7 µM; in the data set on A549, > 30 µM; with NIH3T3 it was > 30 µM; in the data set on HT-29, > 30 µM; with FaDu it was 16 µM; with 518A2 it was 15 µM. This compound also registered an EC50 in the data set with MCF7 of 14.1 µM. The selectivity ratio in data set [2] was > 11.
With `C=CCN(CC(=O)NC(C)(C)C)C(=O)[C@]12CCC(C)(C)C[C@H]1C1=CC[C@@H]3[C@@]4(C)C[C@@H](OC(C)=O)[C@H](OC(C)=O)C(C)(C)[C@@H]4CC[C@@]3(C)[C@]1(C)CC2`, the Activity with A2780 [3] is 6.3%; in the data set on A2780 [4], 9.9%; in the data set on A2780 [5], 31.7%; in the data set with A2780 [6], 56.8%; in the data set with A2780 [7], 14.6%; with A2780 [8] it was 5.3%. In addition, the Activity came out at 61.7% in the data set on A2780 [9] and 13.7% with A2780 [10]. In addition, the EC50 was found to be 0.5 µM with A2780 [1]; 4.4 µM in the data set with A549; 7.8 µM in the data set on NIH3T3; 3.9 µM with HT-29; 4.8 µM in the data set on FaDu; 2.9 µM in the data set with 518A2. Besides, the EC50 in the data set on MCF7 came to 4.1 µM.
As for `CC(=O)O[C@@H]1C[C@]2(C)[C@H]3CC=C4[C@@H]5CC(C)(C)CC[C@]5(C(=O)N(CC(=O)NCc5ccccc5)Cc5ccccc5)CC[C@@]4(C)[C@]3(C)CC[C@H]2C(C)(C)[C@H]1OC(C)=O`, the Activity in the data set on A2780 [11] is listed as 57.1%; with A2780 [12] it was 72.7%; with A2780 [13], 4.2%; in the data set on A2780 [3], 5.1%; in the data set on A2780 [14], 28.7%; in the data set with A2780 [4], 8.4%. Further, the Activity came to 30.7% with A2780 [5]; 11.5% in the data set on A2780 [15]; 60.3% in the data set with A2780 [6]; 19.8% in the data set with A2780 [7]; 7.6% in the data set with A2780 [16]; 4.6% with A2780 [8]. In addition, the Activity entry in the data set on A2780 [17] is “Dose-dependent effect”; in the data set with A2780 [9] it was 55.1%; with A2780 [18] it was 11.6%; in the data set on A2780 [10], 16.7%; in the data set on A2780 [19], 6.8%. Besides, the EC50 was 0.3 µM with A2780 [1]; 2.2 µM in the data set with A549; 21.9 µM in the data set with NIH3T3; 2.1 µM with HT-29; 2.1 µM in the data set on FaDu; 1.2 µM in the data set with 518A2. Further, in the data set on MCF7, the EC50 worked out at 2.1 µM. Besides, the selectivity ratio in data set [2] stood at 73.
`CC(=O)O[C@@H]1C[C@]2(C)[C@H]3CC=C4[C@@H]5CC(C)(C)CC[C@]5(C(=O)N(CC(=O)NCc5ccccc5)Cc5ccoc5)CC[C@@]4(C)[C@]3(C)CC[C@H]2C(C)(C)[C@H]1OC(C)=O`: the EC50 in the data set with A2780 [1] came to 2.1 µM; in the data set on A549 it was 5.4 µM; in the data set on NIH3T3 it was 6.5 µM; with HT-29 it was 9.9 µM; in the data set on FaDu, 14.1 µM; with 518A2, 13.1 µM. The compound also had an EC50 in the data set on MCF7 of 3.4 µM.
On to `CCCCNC(=O)CN(Cc1ccccc1)C(=O)[C@]12CCC(C)(C)C[C@H]1C1=CC[C@@H]3[C@@]4(C)CC[C@H](OC(C)=O)C(C)(C)[C@@H]4CC[C@@]3(C)[C@]1(C)CC2`, for which the EC50 in the data set with A2780 [1] was 3 µM; in the data set with A549 it was > 30 µM; in the data set with NIH3T3, > 30 µM; in the data set with HT-29 it was > 30 µM; in the data set with FaDu it was 22.7 µM; in the data set on 518A2, > 30 µM. The EC50 in the data set with MCF7 came to 22.1 µM.
Turning to `CN(CC(=O)NC(C)(C)C)C(=O)[C@]12CCC(C)(C)C[C@H]1C1=CC[C@@H]3[C@@]4(C)CC[C@H](O)C(C)(C)[C@@H]4CC[C@@]3(C)[C@]1(C)CC2`, the EC50 with A2780 [1] stood at 11 µM; in the data set with A549, 8.6 µM; with NIH3T3, 11.2 µM; in the data set with HT-29 it was 13.8 µM; with FaDu, 8.1 µM; in the data set on 518A2 it was 7.9 µM. The EC50 with MCF7 amounted to 12.2 µM.
As for `C=CCN(CC(=O)NCCCC)C(=O)[C@]12CCC(C)(C)C[C@H]1C1=CC[C@@H]3[C@@]4(C)CC[C@H](OC(C)=O)C(C)(C)[C@@H]4CC[C@@]3(C)[C@]1(C)CC2`, the EC50 in the data set with A2780 [1] was 3.1 µM; in the data set with A549 it was > 30 µM; with NIH3T3 it was > 30 µM; in the data set on HT-29, > 30 µM; in the data set with FaDu, 16.1 µM; in the data set with 518A2, 15 µM. In the data set with MCF7, the EC50 was > 30 µM.
